Data reported in patent publication US20250268826A1, “IONIZABLE LIPIDOID COMPOSITIONS AND THERAPEUTIC USES THEREOF” (Flagship Pioneering Innovations VII, LLC, priority 2023, published 2025).

Legend:
Format in all cases: physicochemical
[1] = Encapsulation efficiency (EE %) by fluorescence based Ribogreen assay
[2] = LNP size and polydispersity index (PDI) by dynamic light scattering (DLS)
[3] = LNP Zeta potential measured using a Zetasizer (Malvern); conditions: for Zeta potential: hEPO mRNA, N:P 6; for Zeta potential (mV): LNP with hEPO mRNA, N:P ratio 6
[4] = Table 8, LNP 50:10:38.5:1.5 mol %, hEPO mRNA, N:P 6
[5] = Table 6, LNP 50:10:38.5:1.5 mol %, hEPO mRNA, N:P 6
[6] = Table 6, LNP 60:0:38.5:1.5 mol %, hEPO mRNA, N:P 6
[7] = Table 6, LNP lipid:DSPC:Cholesterol:DMG-PEG2k 50:10:38.5:1.5 mol %, hEPO mRNA, N:P 6
[8] = Table 6, LNP 50:10:38.5:1.5 mol %
[9] = Table 6, LNP 60:0:38.5:1.5 mol %
[10] = Table 9, LNP 50:10:38.5:1.5 mol %, hEPO mRNA, N:P 6
[11] = Table 9, LNP Lipid:DSPC:Cholesterol:DMG-PEG2k 50:10:38.5:1.5 mol %, hEPO mRNA, N:P 6
[12] = Table 9, LNP 50:10:38.5:1.5 mol %
[13] = Table 11, LNP with hEPO mRNA, Lipid:DSPC:Cholesterol:DMG-PEG2k 50:10:38.5:1.5 mol % (ALC-0315: 46.3:9.4:42.7:1.6), N:P ratio 6, HEPES/sodium chloride/sucrose buffer, stored at −80C
[14] = Table 11, Lipid:DSPC:Cholesterol:DMG-PEG2k 50:10:38.5:1.5 mol % (ALC-0315: 46.3:9.4:42.7:1.6), HEPES/sodium chloride/sucrose buffer, stored at −80C
[15] = Table 10, LNP with hEPO mRNA, Lipid:DSPC:Cholesterol:DMG-PEG2k 50:10:38.5:1.5 mol %, N:P ratio 6, DLS
[16] = Table 1, LNP lipid:DSPC:Cholesterol:DMG-PEG2k 50:10:38.5:1.5 mol %, hEPO mRNA, N:P 6
[17] = Table 1, LNP lipid:DSPC:Cholesterol:DMG-PEG2k 50:10:38.5:1.5 mol %
[18] = Table 5, LNP 50:10:38.5:1.5 mol %, hEPO mRNA, N:P 6
[19] = Table 5, LNP 60:0:38.5:1.5 mol %, hEPO mRNA, N:P 6
[20] = Table 5, LNP Lipid:DSPC:Cholesterol:DMG-PEG2k 50:10:38.5:1.5 mol %, hEPO mRNA, N:P 6
[21] = Table 5, LNP 50:10:38.5:1.5 mol %

CCCCCCCCC(CCCCCC)C(=O)OCCN(CCOC(=O)C(CCCCCC)CCCCCCCC)C(=O)CCCN(C)CCO.Cl (centres unmarked) [Compound 986]
Encapsulation Efficiency % [1, 4]: 99.9%
PDI [2, 4]: 0.088
Size ([2]; Table 8, LNP Lipid:DSPC:Cholesterol:DMG-PEG2k 50:10:38.5:1.5 mol %, hEPO mRNA, N:P 6): 112.9 nm
Zeta potential ([3]; Table 8, LNP 50:10:38.5:1.5 mol %): −8.2 mV

CCCCCCCCC(CCCCCC)C(=O)OCCN(CCOC(=O)C(CCCCCC)CCCCCCCC)C(=O)CCC(C)N (centres unmarked) [Compound 805]
Encapsulation Efficiency % [1, 5]: 98.3%
Encapsulation Efficiency % [1, 6]: 99.9%
PDI [2, 5]: 0.214
PDI [2, 6]: 0.137
Size [2, 6]: 84.7 nm
Size [2, 7]: 110.2 nm
Zeta potential [3, 8]: −0.2 mV
Zeta potential [3, 9]: 3 mV

CCCCCCCCC(CCCCCC)C(=O)OCCN(CCOC(=O)C(CCCCCC)CCCCCCCC)C(=O)CN1CCOCC1.Cl (centres unmarked) [Compound 960e]
Encapsulation Efficiency % [1, 10]: 99.4%
PDI [2, 10]: 0.384
Size [2, 11]: 73.3 nm
Zeta potential [3, 12]: −45.58 mV

CCCCCCCCC(CCCCCC)C(=O)OCCN(CCOC(=O)C(CCCCCC)CCCCCCCC)C(=O)C(C)CCN(CCCC)CCCC.Cl (centres unmarked) [Compound 987o]
Encapsulation Efficiency % [1, 13]: 90.2%
PDI [2, 13]: 0.121
Size (nm) [2, 13]: 57.4 nm
Zeta potential (mV) [3, 14]: −4.1 mV

CCCCCCCCCC(CCCCCCCCC)C(=O)OCCN(CCOC(=O)C(CCCCCCCCC)CCCCCCCCC)C(=O)CCN(C)CCC [Compound 917g]
Encapsulation Efficiency % ([1]; Table 10, LNP with hEPO mRNA, Lipid:DSPC:Cholesterol:DMG-PEG2k 50:10:38.5:1.5 mol %, N:P ratio 6, Ribogreen assay): 93.5%
PDI [2, 15]: 0.281
Size (nm) [2, 15]: 49.2 nm
Zeta potential (mV) ([3]; Table 10, Lipid:DSPC:Cholesterol:DMG-PEG2k 50:10:38.5:1.5 mol %): −10.2 mV

CCCCCCCCCCCC(=O)OCCN(CCOC(=O)CCCCCCCCCCC)C(=O)C(N)Cc1c[nH]cn1 (centres unmarked) [Compound 127]
Encapsulation Efficiency % [1, 16]: 89.5%
PDI [2, 16]: 0.387
Size [2, 16]: 85.9 nm
Zeta potential [3, 17]: 6.011 mV

CCCCCCCCC(CCCCCC)C(=O)OCCN(CCOC(=O)C(CCCCCC)CCCCCCCC)C(=O)CCN (centres unmarked) [Compound 801]
Encapsulation Efficiency % [1, 5]: 98.5%
Encapsulation Efficiency % [1, 6]: 98.4%
PDI [2, 5]: 0.436
PDI [2, 6]: 0.169
Size [2, 6]: 93.6 nm
Size [2, 7]: 105.8 nm
Zeta potential [3, 8]: −1.5 mV
Zeta potential [3, 9]: 1.6 mV

CCCCCCCCC(CCCCCC)C(=O)OCCN(CCOC(=O)C(CCCCCC)CCCCCCCC)C(=O)CN(C)CCC.Cl (centres unmarked) [Compound 969]
Encapsulation Efficiency % [1, 10]: 99.4%
PDI [2, 10]: 0.15
Size [2, 11]: 70 nm
Zeta potential [3, 12]: −28.83 mV

CCCCCCCC(CCCCCCC)C(=O)OCCN(CCOC(=O)C(CCCCCCC)CCCCCCC)C(=O)C(N)Cc1ccccc1 (centres unmarked) [Compound 618]
Encapsulation Efficiency % [1, 18]: 97.9%
Encapsulation Efficiency % [1, 19]: 92.8%
PDI [2, 18]: 0.304
PDI [2, 19]: 0.116
Size [2, 19]: 211.9 nm
Size [2, 20]: 53.9 nm
Zeta potential [3, 21]: −13.69 mV
Zeta potential ([3]; Table 5, LNP 60:0:38.5:1.5 mol %): −17.91 mV

CCCCCCCCC(CCCCCC)C(=O)OCCN(CCOC(=O)C(CCCCCC)CCCCCCCC)C(=O)C(C)CCN(CC)CC.Cl (centres unmarked) [Compound 987g]
Encapsulation Efficiency % [1, 13]: 95.4%
PDI [2, 13]: 0.097
Size (nm) [2, 13]: 70.5 nm
Zeta potential (mV) [3, 14]: −3.5 mV

CCCCCC(CCCCC)C(=O)OCCN(CCOC(=O)C(CCCCC)CCCCC)C(=O)CN [Compound 601]
Encapsulation Efficiency % [1, 18]: 99.8%
PDI [2, 18]: 0.185
Size [2, 20]: 83.8 nm
Zeta potential [3, 21]: −4.878 mV

CCCCCCCCC(CCCCCC)C(=O)OCCN(CCOC(=O)C(CCCCCC)CCCCCCCC)C(=O)C(C)CCN(CC)CCC.Cl (centres unmarked) [Compound 987j]
Encapsulation Efficiency % [1, 13]: 95.7%
PDI [2, 13]: 0.101
Size (nm) [2, 13]: 76.6 nm
Zeta potential (mV) [3, 14]: −4.4 mV

CCCCCCCC/C=C\CCCCCCCC(=O)OCCN(CCOC(=O)CCCCCCC/C=C\CCCCCCCC)C(=O)CN [Compound 101]
Encapsulation Efficiency % [1, 16]: 97.9%
PDI [2, 16]: 0.088
Size [2, 16]: 62.6 nm
Zeta potential [3, 17]: 4.394 mV

CCCCCCCCCC(=O)OCCN(CCOC(=O)CCCCCCCCC)C(=O)CN [Compound 104]
Encapsulation Efficiency % [1, 16]: 94.4%
PDI [2, 16]: 0.441
Size [2, 16]: 74.7 nm
Zeta potential [3, 17]: −2.361 mV

CCCCCCCCC(CCCCCC)C(=O)OCCN(CCOC(=O)C(CCCCCC)CCCCCCCC)C(=O)CN(C)CCO.Cl (centres unmarked) [Compound 960g]
Encapsulation Efficiency % [1, 10]: 99%
PDI [2, 10]: 0.254
Size [2, 11]: 72.6 nm
Zeta potential [3, 12]: −12.1 mV

CCCCCCCCC(CCCCCC)C(=O)OCCN(CCOC(=O)C(CCCCCC)CCCCCCCC)C(=O)CC(C)N (centres unmarked) [Compound 802]
Encapsulation Efficiency % [1, 5]: 98.4%
Encapsulation Efficiency % [1, 6]: 98.4%
PDI [2, 5]: 0.224
PDI [2, 6]: 0.195
Size [2, 6]: 87.6 nm
Size [2, 7]: 104.5 nm
Zeta potential [3, 8]: −1.8 mV
Zeta potential [3, 9]: 0.1 mV
